Results taken from patent publication US20240199623A1 (ILDONG PHARMACEUTICAL CO., LTD., priority 2020, published 2024).

What follows are compounds tested against human wild type-CFTR (Homo sapiens, UniProt P13569) (assay: Cell-based YFP assay). Conditions: CHO-K1 cells expressing human wild type-CFTR and YFP-H148Q/I152L; forskolin 20 μM = 100% activity; read-out: Cell-based YFP Assay (EC50) Concentration Range.
Design: expressed in transfected cells; host or cells: CHO-K1 (Chinese hamster ovary)
How it was run: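 CHO-K1 cells co-expressing human wild-type CFTR and YFP-H148Q/I152L halide sensor, grown 48 h at 37 °C, then in PBS. YFP quenching by I⁻ influx read at 37 °C after adding 140 mM I⁻ solution, sampled every 0.4 s for 14 s. Triplicates averaged; EC50 fitted.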

Sequence of human wild type-CFTR (P13569 whole entry): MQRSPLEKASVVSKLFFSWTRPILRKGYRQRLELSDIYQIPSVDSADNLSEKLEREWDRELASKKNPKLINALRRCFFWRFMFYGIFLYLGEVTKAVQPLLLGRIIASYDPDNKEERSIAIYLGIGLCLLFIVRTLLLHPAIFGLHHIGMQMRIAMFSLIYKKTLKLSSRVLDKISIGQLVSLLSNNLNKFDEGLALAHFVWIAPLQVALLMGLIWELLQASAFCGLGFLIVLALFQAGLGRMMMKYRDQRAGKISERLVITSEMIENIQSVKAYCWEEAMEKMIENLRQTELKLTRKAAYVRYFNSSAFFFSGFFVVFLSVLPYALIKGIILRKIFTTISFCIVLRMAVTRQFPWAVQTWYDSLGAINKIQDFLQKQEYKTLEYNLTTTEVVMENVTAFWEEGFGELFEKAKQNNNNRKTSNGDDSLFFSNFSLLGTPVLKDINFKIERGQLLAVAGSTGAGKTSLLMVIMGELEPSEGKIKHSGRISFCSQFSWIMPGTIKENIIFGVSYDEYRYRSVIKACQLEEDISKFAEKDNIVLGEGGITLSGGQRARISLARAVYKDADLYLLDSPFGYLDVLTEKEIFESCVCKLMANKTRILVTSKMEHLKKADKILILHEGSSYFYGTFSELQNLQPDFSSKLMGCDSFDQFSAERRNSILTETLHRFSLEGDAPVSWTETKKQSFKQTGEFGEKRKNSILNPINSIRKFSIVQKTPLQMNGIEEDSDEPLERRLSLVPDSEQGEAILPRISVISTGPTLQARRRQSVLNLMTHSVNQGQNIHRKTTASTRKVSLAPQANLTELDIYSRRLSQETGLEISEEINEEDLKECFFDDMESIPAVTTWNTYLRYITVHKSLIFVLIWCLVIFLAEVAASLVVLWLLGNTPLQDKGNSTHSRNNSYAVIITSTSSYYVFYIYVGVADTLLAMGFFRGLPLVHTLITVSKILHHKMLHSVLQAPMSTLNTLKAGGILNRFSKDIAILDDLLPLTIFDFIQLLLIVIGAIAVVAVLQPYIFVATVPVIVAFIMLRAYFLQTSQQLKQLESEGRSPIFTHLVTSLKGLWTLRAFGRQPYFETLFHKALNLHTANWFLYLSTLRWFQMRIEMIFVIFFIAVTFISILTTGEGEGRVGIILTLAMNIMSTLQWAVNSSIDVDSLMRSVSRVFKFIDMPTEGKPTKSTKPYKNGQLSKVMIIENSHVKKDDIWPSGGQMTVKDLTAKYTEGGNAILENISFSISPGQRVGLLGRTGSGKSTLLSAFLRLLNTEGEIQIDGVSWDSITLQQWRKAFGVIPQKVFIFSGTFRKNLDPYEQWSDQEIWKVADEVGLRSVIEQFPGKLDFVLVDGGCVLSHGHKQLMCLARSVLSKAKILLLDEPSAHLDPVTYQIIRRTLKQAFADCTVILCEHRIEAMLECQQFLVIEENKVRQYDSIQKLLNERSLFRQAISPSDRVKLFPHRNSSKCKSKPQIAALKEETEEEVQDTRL

Row | Structure (SMILES) | EC50
1 | COc1ccc(-c2ccnc3cc(C(=O)N4CCc5ccc(C(=O)N6CCN(C)CC6)cc54)nn23)cc1OC [Compound 252, (7-(3,4-dimethoxyphenyl)pyrazolo[1,5-a]pyrimidin-2-yl)(6-(4-methylpiperazine-1-carbonyl)indolin-1-yl)methanone] | ≥ 2000 nM
2 | COc1ccc(-c2ccnc3cc(C(=O)N4C[C@H](C)N[C@@H](C)C4)nn23)cc1OC [Compound 359, (7-(3,4-dimethoxyphenyl)pyrazolo[1,5-a]pyrimidin-2-yl) ((3S,5S)-3,5-dimethylpiperazin-1-yl)methanone] | 200 to 2000 nM
3 | COc1ccc(-c2ccnc3cc(C(=O)NC45CC(C(=O)N6CCN(C)CC6)(C4)C5)nn23)cc1OC [Compound 123, 7-(3,4-dimethoxyphenyl)-N-(3-(4-methylpiperazine-1-carbonyl)bicyclo[1.1.1]pentan-1-yl) pyrazolo[1,5-a]pyrimidine-2-carboxamide] | ≥ 2000 nM
4 | COc1ccc(-c2ccnc3cc(C(=O)N4CCN(C(=O)CO)CC4)nn23)cc1OC [Compound 90, 1-(4-(7-(3,4-dimethoxyphenyl)pyrazolo[1,5-a]pyrimidine-2-carbonyl)piperazin-1-yl)-2-hydroxyethan-1-one] | ≥ 2000 nM
5 | COc1ccc(-c2ccnc3cc(C(=O)NC4CCN(C(=O)COC(C)=O)CC4)nn23)cc1OC [Compound 84, 2-(4-(7-(3,4-dimethoxyphenyl)pyrazolo[1,5-a]pyrimidine-2-carboxamido)piperidin-1-yl)-2-oxoethyl acetate] | ≥ 2000 nM
6 | COc1ccc(-c2ccnc3cc(C(=O)N[C@H]4CC[C@H](C(=O)N5CCN(C)CC5)CC4)nn23)cc1OC [Compound 241, 7-(3,4-dimethoxyphenyl)-N-((1r,4r)-4-(4-methylpiperazine-1-carbonyl)cyclohexyl) pyrazolo[1,5-a]pyrimidine-2-carboxamide] | ≥ 2000 nM
7 | COc1ccc(-c2ccnc3cc(C(=O)Nc4ccc(OC(=O)[C@H](C)NC(=O)OC(C)(C)C)cc4)nn23)cc1OC [Compound 228, 4-(7-(3,4-dimethoxyphenyl)pyrazolo[1,5-a]pyrimidine-2-carboxamido) phenyl(tert-butoxycarbonyl)-L-alaninate] | < 200 nM
8 | COc1ccc(-c2ccnc3cc(C(=O)Nc4ccc(F)cc4)nn23)cc1OC [Compound 267, 7-(3,4-dimethoxyphenyl)-N-(4-fluorophenyl)pyrazolo[1,5-a]pyrimidine-2-carboxamide] | < 200 nM
9 | COc1ccc(-c2ccnc3cc(C(=O)Nc4cccc(C(=O)N5CCNCC5)c4)nn23)cc1OC [Compound 80, 7-(3,4-dimethoxyphenyl)-N-(3-(piperazine-1-carbonyl)phenyl)pyrazolo [1,5-a]pyrimidine-2-carboxamide] | ≥ 2000 nM
10 | COc1ccc(-c2ccnc3cc(C(=O)Nc4ccc(C(=O)NCCCN5CCN(C)CC5)cc4)nn23)cc1OC [Compound 177, 7-(3,4-dimethoxyphenyl)-N-(4-((3-(4-methylpiperazin-1-yl)propyl)carbamoyl)phenyl)pyrazolo[1,5-a]pyrimidine-2-carboxamide] | ≥ 2000 nM
11 | COc1ccc(-c2ccnc3cc(C(=O)N4CCN(C(=O)c5ccc(Cl)cc5)[C@@H](C)C4)nn23)cc1OC [Compound 262, (S)-(4-(4-chlorobenzoyl)-3-methylpiperazin-1-yl) (7-(3,4-dimethoxyphenyl)pyrazolo[1,5-a]pyrimidin-2-yl)methanone] | 200 to 2000 nM
12 | CCOc1ccc(NC(=O)c2cc3nccc(-c4ccc(F)c(OC)c4)n3n2)cc1 [Compound 307, N-(4-ethoxyphenyl)-7-(4-fluoro-3-methoxyphenyl)pyrazolo [1,5-a]pyrimidine-2-carboxamide] | 200 to 2000 nM
13 | COc1ccc(-c2ccnc3cc(C(=O)NCc4ccc(C(=O)O)cc4)nn23)cc1OC [Compound 94, 4-((7-(3,4-dimethoxyphenyl)pyrazolo[1,5-a]pyrimidine-2-carboxamido)methyl) benzoic acid] | ≥ 2000 nM
14 | COc1ccc(-c2ccnc3cc(C(=O)N[C@H]4CC[C@H](C(=O)N5CCC(N6CCOCC6)CC5)CC4)nn23)cc1OC [Compound 341, 7-(3,4-dimethoxyphenyl)-N-((1R,4R)-4-(4-morpholinopiperidine-1-carbonyl)cyclohexyl) pyrazolo[1,5-a] pyrimidine-2-carboxamide] | ≥ 2000 nM
15 | COc1ccc(-c2ccnc3cc(C(=O)NC4(C(=O)O)CC4)nn23)cc1OC [Compound 29, 1-(7-(3,4-dimethoxyphenyl)pyrazolo[1,5-a]pyrimidine-2-carboxamido) cyclopropane-1-carboxylic acid] | ≥ 2000 nM
16 | COc1ccc(-c2ccnc3cc(C(=O)N4C[C@H](C)NC[C@@H]4C)nn23)cc1OC [Compound 362, (7-(3,4-dimethoxyphenyl)pyrazolo[1,5-a]pyrimidin-2-yl) ((2S,5S)-2,5-dimethylpiperazin-1-yl)methanone] | 200 to 2000 nM
17 | COc1ccc(-c2ccnc3cc(C(=O)N4CCN(C(=O)c5ccccc5)[C@@H](C5CC5)C4)nn23)cc1OC [Compound 378, (S)-(4-benzoyl-3-cyclopropylpiperazin-1-yl)(7-(3,4-dimethoxyphenyl)pyrazolo[1,5-a]pyrimidin-2-yl) methanone] | < 200 nM

Row | Structure (SMILES) | EC50
18 | COc1ccc(-c2ccnc3cc(C(=O)NC4CCC(N(C)C)CC4)nn23)cc1OC (stereo not drawn) [Compound 27, 7-(3,4-dimethoxyphenyl)-N-(4-(dimethylamino)cyclohexyl) pyrazolo[1,5-a]pyrimidine-2-carboxamide] | ≥ 2000 nM
19 | COc1ccc(-c2ccnc3cc(C(=O)N4CCN(C(=O)c5ccncc5)[C@@H](C)C4)nn23)cc1OC [Compound 357, (S)-(7-(3,4-dimethoxyphenyl)pyrazolo[1,5-a]pyrimidin-2-yl)(4-isonicotinoyl-3-methylpiperazin-1-yl)methanone] | 200 to 2000 nM
20 | COc1ccc(-c2ccnc3cc(C(=O)NC45CCC(C(=O)OCCCN6CCOCC6)(CC4)CC5)nn23)cc1OC [Compound 255, 3-morpholinopropyl 4-(7-(3,4-dimethoxyphenyl)pyrazolo [1,5-a]pyrimidine-2-carboxamido)bicyclo[2.2.2] octane-1-carboxylate] | < 200 nM
21 | COc1ccc(-c2ccnc3cc(C(=O)Nc4ccc(C(=O)OCCN5CCCC5)cc4)nn23)cc1OC [Compound 225, 2-(pyrrolidin-1-yl)ethyl 4-(7-(3,4-dimethoxyphenyl)pyrazolo [1,5-a]pyrimidine-2-carboxamido)benzoate] | ≥ 2000 nM
22 | COc1ccc(-c2ccnc3cc(C(=O)N[C@]45CC[C@](N6CCOCC6)(CC4)CC5)nn23)cc1OC [Compound 320, 7-(3,4-dimethoxyphenyl)-N-(4-morpholinobicyclo[2.2.2]octan-1-yl) pyrazolo[1,5-a]pyrimidine-2-carboxamide] | 200 to 2000 nM
23 | COc1ccc(-c2ccnc3cc(C(=O)N4CCN(C(=O)OC(C)(C)C)[C@H](C)C4)nn23)cc1OC [Compound 321, tert-butyl (R)-4-(7-(3,4-dimethoxyphenyl)pyrazolo [1,5-a]pyrimidine-2-carbonyl)-2-methylpiperazine-1-carboxylate] | 200 to 2000 nM
24 | COc1ccc(-c2ccnc3cc(C(=O)NC45CC(C(=O)OCCCN6CCOCC6)(C4)C5)nn23)cc1OC [Compound 199, 3-morpholinopropyl 3-(7-(3,4-dimethoxyphenyl)pyrazolo [1,5-a]pyrimidine-2-carboxamido)bicyclo[1.1.1] pentane-1-carboxylate] | 200 to 2000 nM
25 | COc1ccc(-c2ccnc3cc(C(=O)N4CCN[C@@H](C(C)C)C4)nn23)cc1OC [Compound 372, (S)-(7-(3,4-dimethoxyphenyl)pyrazolo[1,5-a]pyrimidin-2-yl)(3-isopropylpiperazin-1-yl)methanone] | 200 to 2000 nM
26 | CCOc1ccc(NC(=O)c2cc3nccc(-c4ccc(OC)cc4)n3n2)cc1 [Compound 13, N-(4-ethoxyphenyl)-7-(4-methoxyphenyl)pyrazolo [1,5-a]pyrimidine-2-carboxamide] | 200 to 2000 nM
27 | CC[C@H]1CN(C(=O)c2cc3nccc(-c4ccc(OC)c(OC)c4)n3n2)CCN1 [Compound 371, (S)-(7-(3,4-dimethoxyphenyl)pyrazolo[1,5-a]pyrimidin-2-yl)(3-ethylpiperazin-1-yl)methanone] | 200 to 2000 nM
28 | CCOc1ccc(NC(=O)c2cc3nccc(-c4ccc(F)c(F)c4)n3n2)cc1 [Compound 293] | ≥ 2000 nM
29 | COc1ccc(-c2ccnc3cc(C(=O)N[C@H]4CC[C@H](N5CCOCC5)CC4)nn23)cc1OC [Compound 345, 7-(3,4-dimethoxyphenyl)-N-((1R,4R)-4-morpholinocyclohexyl) pyrazolo[1,5-a]pyrimidine-2-carboxamide] | ≥ 2000 nM
30 | COc1ccc(-c2ccnc3cc(C(=O)N4CCN(c5ccccc5)CC4)nn23)cc1OC [Compound 152, (7-(3,4-dimethoxyphenyl)pyrazolo[1,5-a]pyrimidin-2-yl)(4-phenylpiperazin-1-yl)methanone] | 200 to 2000 nM
31 | COc1ccc(-c2ccnc3cc(C(=O)N4CCCc5cc(C(=O)N6CCN(C)CC6)ccc54)nn23)cc1OC [Compound 235, (7-(3,4-dimethoxyphenyl)pyrazolo[1,5-a]pyrimidin-2-yl)(6-(4-methylpiperazine-1-carbonyl)-3,4-dihydroquinolin-1(2H)-yl)methanone] | ≥ 2000 nM
32 | COc1ccc(-c2ccnc3cc(C(=O)Nc4ccc(C(=O)OCCCN5CCOCC5)c(Cl)c4)nn23)cc1OC [Compound 162, 3-morpholinopropyl 2-chloro-4-(7-(3,4-dimethoxyphenyl)pyrazolo [1,5-a]pyrimidine-2-carboxamido)benzoate] | ≥ 2000 nM
33 | CCOc1ccc(NC(=O)c2cc3nccc(-c4ccc(F)c(Cl)c4)n3n2)cc1 [Compound 316, 7-(3-chloro-4-fluorophenyl)-N-(4-ethoxyphenyl)pyrazolo [1,5-a]pyrimidine-2-carboxamide] | ≥ 2000 nM
